Data reported in patent US8431593B2, “Heteroaryl amide derivatives” (H. Lundbeck A/S, priority 2006, dated 2013).

molecular target: T1, P2X7 receptor (Homo sapiens, UniProt Q99572); experiment: P2X7 calcium mobilization assay, high throughput, antagonist activity (Example 4A); format: cell-based; conditions: not given
T1 construct: host or cells: SH-SY5Y
T1 sequence (Q99572 1-595): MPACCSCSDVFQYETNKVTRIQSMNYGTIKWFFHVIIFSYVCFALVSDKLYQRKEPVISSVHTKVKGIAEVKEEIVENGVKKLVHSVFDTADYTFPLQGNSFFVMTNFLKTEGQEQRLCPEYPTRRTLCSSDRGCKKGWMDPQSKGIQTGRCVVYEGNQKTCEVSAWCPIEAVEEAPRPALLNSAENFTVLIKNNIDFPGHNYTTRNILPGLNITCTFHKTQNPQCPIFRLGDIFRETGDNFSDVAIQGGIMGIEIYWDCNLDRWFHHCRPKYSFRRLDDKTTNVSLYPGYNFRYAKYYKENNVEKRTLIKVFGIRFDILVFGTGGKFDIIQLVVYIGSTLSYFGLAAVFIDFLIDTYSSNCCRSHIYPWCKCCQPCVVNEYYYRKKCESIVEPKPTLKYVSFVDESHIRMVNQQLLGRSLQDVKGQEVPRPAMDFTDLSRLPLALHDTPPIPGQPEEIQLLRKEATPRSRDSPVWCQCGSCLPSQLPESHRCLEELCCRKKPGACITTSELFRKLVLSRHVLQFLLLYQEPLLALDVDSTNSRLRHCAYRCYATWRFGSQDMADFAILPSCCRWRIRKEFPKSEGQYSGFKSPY
In short: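 Antagonism was measured as calcium mobilization on FLIPR^TETRA after a 1 h room-temperature compound preincubation of dye-loaded cells. Baseline from no-agonist wells was subtracted from each well's maximum RFU.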

SMILES | IC50
O=C(Cc1cn2c(C(=O)NCC34CC5CC(CC(C5)C3)C4)cccc2n1)NCC1CCCO1 (stereo not drawn) [Compound 157, N-(adamantan-1-ylmethyl)-2-{2-oxo-2-[(tetrahydrofuran-2-ylmethyl)amino]ethyl}imi-dazo[1,2-a]pyridine-5-carboxamide] | < 2 µM

same assay, conditions: SH-SY5Y cells; 50% decrease in fluorescence response to 80 μM BzATP; read-out: IC50

SMILES | IC50
O=C(Cc1cn2c(C(=O)NCC34CC5CC(CC(C5)C3)C4)cccc2n1)NC1CCC1 [Compound 151, N-(adamantan-1-ylmethyl)-2-[2-(cyclobutylamino)-2-oxoethyl]imidazo[1,2-a]pyridine-5-carboxamide] | < 2 µM
CCC(C)NC(=O)Cc1cn2c(C(=O)NCC34CC5CC(CC(C5)C3)C4)cccc2n1 (stereo not drawn) [Compound 152, N-(adamantan-1-ylmethyl)-2-[2-(sec-butylamino)-2-oxoethyl]imidazo[1,2-a]pyridine-5-carboxamide] | < 2 µM
O=C(Cc1cn2c(C(=O)NCC34CC5CC(CC(C5)C3)C4)cccc2n1)NC1CCCC1 [Compound 153, N-(adamantan-1-ylmethyl)-2-[2-(cyclopentylamino)-2-oxoethyl]imidazo[1,2-a]pyridine-5-carboxamide] | < 2 µM
CC(C)(C)CNC(=O)Cc1cn2c(C(=O)NCC34CC5CC(CC(C5)C3)C4)cccc2n1 [Compound 154, N-(adamantan-1-ylmethyl)-2-{2-[(2,2-dimethylpropyl)amino]-2-oxoethyl}imidazo[1,2-a]pyridine-5-carboxamide] | < 2 µM
CCOCCNC(=O)Cc1cn2c(C(=O)NCC34CC5CC(CC(C5)C3)C4)cccc2n1 [Compound 155, N-(adamantan-1-ylmethyl)-2-{2-[(2-ethoxyethyl)amino]-2-oxoethyl}imidazo[1,2-a]pyridine-5-carboxamide] | < 2 µM
CC(C)OCCNC(=O)Cc1cn2c(C(=O)NCC34CC5CC(CC(C5)C3)C4)cccc2n1 [Compound 156, N-(adamantan-1-ylmethyl)-2-{2-[(2-isopropoxyethyl)amino]-2-oxoethyl}imidazo[1,2-a]pyridine-5-carboxamide] | < 2 µM
O=C(Cc1cn2c(C(=O)NCC34CC5CC(CC(C5)C3)C4)cccc2n1)NCC(F)(F)F [Compound 158, N-(adamantan-1-ylmethyl)-2-{2-oxo-2-[(2,2,2-trifluoroethyl)amino]eth-yl}imidazo[1,2-a]pyridine-5-carboxamide] | < 2 µM
CCCOCCNC(=O)Cc1cn2c(C(=O)NCC34CC5CC(CC(C5)C3)C4)cccc2n1 [Compound 159, N-(adamantan-1-ylmethyl)-2-{2-oxo-2-[(2-propoxyethyl)amino]eth-yl}imidazo[1,2-a]pyridine-5-carboxamide] | < 2 µM
CCC(COC)NC(=O)Cc1cn2c(C(=O)NCC34CC5CC(CC(C5)C3)C4)cccc2n1 (stereo not drawn) [Compound 160, N-(adamantan-1-ylmethyl)-2-(2-{[1-(methoxymethyl)pro-pyl]amino}-2-oxoethyl)imidazo[1,2-a]pyridine-5-carboxamide] | < 2 µM
NC(=O)[C@H]1CCC[C@H]1NC(=O)Cc1cn2c(C(=O)NCC34CC5CC(CC(C5)C3)C4)cccc2n1 [Compound 161, N-(adamantan-1-ylmethyl)-2-(2-{[(1R,2S)-2-carbamoylcyclo-pentyl]amino}-2-oxoethyl)imidazo[1,2-a]pyridine-5-carboxamide] | < 2 µM
O=C(Cc1cn2c(C(=O)NCC34CC5CC(CC(C5)C3)C4)cccc2n1)NN1CCOCC1 [Compound 162, N-(adamantan-1-ylmethyl)-2-[2-(morpholin-4-ylamino)-2-oxoethyl]imidazo[1,2-a]pyridine-5-carboxamide] | < 2 µM
O=C(Cc1cn2c(C(=O)NCC34CC5CC(CC(C5)C3)C4)cccc2n1)NN1CCCCCC1 [Compound 163, N-(adamantan-1-ylmethyl)-2-[2-(azepan-1-ylamino)-2-oxoethyl]imidazo[1,2-a]pyridine-5-carboxamide] | < 2 µM
CC(C)N1CCN(C(=O)Cc2cn3c(C(=O)NCC45CC6CC(CC(C6)C4)C5)cccc3n2)CC1 [Compound 164, N-(adamantan-1-ylmethyl)-2-[2-(4-isopropylpiperazin-1-yl)-2-oxoethyl]imidazo[1,2-a]pyridine-5-carboxamide] | < 2 µM
CN(C)C(=O)Cc1cn2c(C(=O)NCC34CC5CC(CC(C5)C3)C4)cccc2n1 [Compound 165, N-(adamantan-1-ylmethyl)-2-[2-(dimethylamino)-2-oxoethyl]imidazo[1,2-a]pyridine-5-carboxamide] | < 2 µM
CC(=O)N1CCN(C(=O)Cc2cn3c(C(=O)NCC45CC6CC(CC(C6)C4)C5)cccc3n2)CC1 [Compound 166, 2-[2-(4-acetylpiperazin-1-yl)-2-oxoethyl]-N-(adamantan-1-ylmethyl)imidazo[1,2-a]pyridine-5-carboxamide] | < 2 µM
O=CN1CCN(C(=O)Cc2cn3c(C(=O)NCC45CC6CC(CC(C6)C4)C5)cccc3n2)CC1 [Compound 167, N-(adamantan-1-ylmethyl)-2-[2-(4-formylpiperazin-1-yl)-2-oxoethyl]imidazo[1,2-a]pyridine-5-carboxamide] | < 2 µM
CCN(C)C(=O)Cc1cn2c(C(=O)NCC34CC5CC(CC(C5)C3)C4)cccc2n1 [Compound 168, N-(adamantan-1-ylmethyl)-2-{2-[ethyl(methyl)amino]-2-oxoethyl}imidazo[1,2-a]pyridine-5-carboxamide] | < 2 µM
CCN1CCN(C(=O)Cc2cn3c(C(=O)NCC45CC6CC(CC(C6)C4)C5)cccc3n2)CC1 [Compound 169, N-(adamantan-1-ylmethyl)-2-[2-(4-ethylpiperazin-1-yl)-2-oxoethyl]imidazo[1,2-a]pyridine-5-carboxamide] | < 2 µM
CC(=O)NC1CCN(C(=O)Cc2cn3c(C(=O)NCC45CC6CC(CC(C6)C4)C5)cccc3n2)C1 (stereo not drawn) [Compound 170, 2-[2-(3-acetamidopyrrolidin-1-yl)-2-oxoethyl]-N-(adamantan-1-ylmethyl)imidazo[1,2-a]pyridine-5-carboxamide] | < 2 µM
COC[C@@H]1CCCN1C(=O)Cc1cn2c(C(=O)NCC34CC5CC(CC(C5)C3)C4)cccc2n1 [Compound 171, N-(adamantan-1-ylmethyl)-2-{2-[(2S)-2-(methoxymethyl)pyrrolidin-1-yl]-2-oxoethyl}imidazo[1,2-a]pyridine-5-carboxamide] | < 2 µM
COC[C@H]1CCCN1C(=O)Cc1cn2c(C(=O)NCC34CC5CC(CC(C5)C3)C4)cccc2n1 [Compound 172, N-(adamantan-1-ylmethyl)-2-{2-[(2R)-2-(methoxymethyl)pyrrolidin-1-yl]-2-oxoethyl}imidazo[1,2-a]pyridine-5-carboxamide] | < 2 µM
CC(C)CN(C)C(=O)Cc1cn2c(C(=O)NCC34CC5CC(CC(C5)C3)C4)cccc2n1 [Compound 173, N-(adamantan-1-ylmethyl)-2-{2-[isobutyl(methyl)amino]-2-oxoethyl}imidazo[1,2-a]pyridine-5-carboxamide] | < 2 µM
O=C(NCC12CC3CC(CC(C3)C1)C2)c1cccc2nc(CC(=O)N3CCCC(C(F)(F)F)C3)cn12 (stereo not drawn) [Compound 174, N-(adamantan-1-ylmethyl)-2-{2-oxo-2-[3-(trifluoromethyl)piperidin-1-yl]ethyl}imidazo[1,2-a]pyridine-5-carboxamide] | < 2 µM
CO[C@H]1CCN(C(=O)Cc2cn3c(C(=O)NCC45CC6CC(CC(C6)C4)C5)cccc3n2)C1 [Compound 175, N-(adamantan-1-ylmethyl)-2-{2-[(3S)-3-methoxypyrrolidin-1-yl]-2-oxoethyl}imidazo[1,2-a]pyridine-5-carboxamide] | < 2 µM
COCC1CCCN(C(=O)Cc2cn3c(C(=O)NCC45CC6CC(CC(C6)C4)C5)cccc3n2)C1 (stereo not drawn) [Compound 176, N-(adamantan-1-ylmethyl)-2-{2-[3-(methoxymethyl)piperidin-1-yl]-2-oxoethyl}imidazo[1,2-a]pyridine-5-carboxamide] | < 2 µM
COCC1CCCCN1C(=O)Cc1cn2c(C(=O)NCC34CC5CC(CC(C5)C3)C4)cccc2n1 (stereo not drawn) [Compound 177, N-(adamantan-1-ylmethyl)-2-{2-[2-(methoxymethyl)piperidin-1-yl]-2-oxoethyl}imidazo[1,2-a]pyridine-5-carboxamide] | < 2 µM
COCCC1CCCN(C(=O)Cc2cn3c(C(=O)NCC45CC6CC(CC(C6)C4)C5)cccc3n2)C1 (stereo not drawn) [Compound 178, N-(adamantan-1-ylmethyl)-2-{2-[3-(2-methoxyethyl)piperidin-1-yl]-2-oxoethyl}imidazo[1,2-a]pyridine-5-carboxamide] | < 2 µM
O=C(NCC12CC3CC(CC(C3)C1)C2)c1cccc2nc(CC(=O)N3CCN(C4CCC4)CC3)cn12 [Compound 179, N-(adamantan-1-ylmethyl)-2-[2-(4-cyclobutylpiperazin-1-yl)-2-oxoethyl]imidazo[1,2-a]pyridine-5-carboxamide] | < 2 µM
O=C(NCC12CC3CC(CC(C3)C1)C2)c1cccc2nc(CC(=O)N3CCCC3)cn12 [Compound 180, N-(adamantan-1-ylmethyl)-2-(2-oxo-2-pyrrolidin-1-ylethyl)imidazo[1,2-a]pyridine-5-carboxamide] | < 2 µM
